Read-outs that look alike come from different tables or passages of the source.
Assay: Tissue half-life (t1/2) and Cmax in plasma, brain, kidney and liver after oral administration to CD-1 mice
Format: in vivo, mouse
Conditions: for half-life: male, mouse
Experimental: In vivo studies were conducted to observe the effect of the compounds of the invention in the subject animal. Male CD-1 mice, body weight of 20 grams at arrival, were used in these studies. Mice were given 30 mg/kg of compound in HPMC/Tween solution or suspension via oral gavage. Plasma, brain, and liver samples were collected at time periods of 1, 2, 4, 8, and 24 hours post dosing. One mouse was used per time point. Thus, a total of 5 mice were used for each compound tested. For sample collection, mice were euthanized with CO2. Blood samples were taken by cardiac puncture and kept on ice. Brain and liver samples were collected immediately after bleeding and the samples were kept on dry ice. For calculation of tissue half-lives (t1/2s), the terminal rate constant k was estimated by the absolute value of the slope of a log-linear regression of the terminal phase of the tissue concentration-time profile. The tissue half-life t1/2 is ln(2)/k.
The following table includes t1/2 data for plasma, brain, kidney, and liver obtained after oral administration.
Tissue Half-Life Data for Various Quinazolinone Compounds (PO)

[1] = brain t1/2, 30 mg/kg oral gavage (PO), read-out: Half-Lives (h) Brain (converted)
[2] = liver t1/2, 30 mg/kg oral gavage (PO), read-out: Half-Lives (h) Liver (converted)
[3] = plasma t1/2, 30 mg/kg oral gavage (PO), read-out: Half-Lives (h) Plasma (converted)
[4] = kidney t1/2, 30 mg/kg oral gavage (PO), read-out: Half-Lives (h) Kidney (converted)

SMILES | half-life [1] [h] | half-life [2] [h] | half-life [3] [h] | Half-Lives (h) Brain (brain t1/2, 30 mg/kg oral gavage (PO)) [h] | Half-Lives (h) Liver (liver t1/2, 30 mg/kg oral gavage (PO)) [h] | Half-Lives (h) Plasma (plasma t1/2, 30 mg/kg oral gavage (PO)) [h] | half-life [4] [h]
COc1ccc(CCn2c(-c3ncc[nH]3)nc3cc(NC(=N[C@H]4C[C@H]5C[C@@H]([C@@H]4C)C5(C)C)N4CCN[C@@H](CF)C4)ccc3c2=O)c(F)c1 [Example 255, (3R)-N-[3-[2-(2-fluoro-4-methoxyphenyl)ethyl]-2-(1H-imidazoi-2-yl)-4-oxo-3,4-dihydroquinazolin-7-yl]-3-(fluoromethyl)-N′-[(1S,2S,3S,5R)-2,6,6-trimethylbicyclo[3.1.1]hept-3-yl]piperazine-1-carboximidamide] | 25 | 7.3 | 5.6 |  |  |  | 
COc1ccc(CCn2c(C#N)nc3cc(NC(=NC4C[C@H]5C[C@@H]([C@@H]4C)C5(C)C)N4CCN[C@@H](CF)C4)ccc3c2=O)c(F)c1 (stereo partly drawn) [Example 256, (3R)-N-{2-cyano-3-[2-(2-fluoro-4-methoxyphenyl)ethyl]-4-oxo-3,4-dihydroquinazolin-7-yl}-3-(fluoromethyl)-N′-[(1S,2S,5R)-26,6-trimethylbicyclo[3.1.1]hept-3-yl]piperazine-1-carboximidamide] |  |  |  | 15 | 4.3 | 5.4 | 
C[C@@H]1[C@@H](N=C(Nc2ccc3c(=O)n(CCc4ccc(F)cc4)c(CF)nc3c2)N2CCN[C@@H](CF)C2)C[C@H]2C[C@@H]1C2(C)C [Example 257, (3R)-3-(fluoromethyl)-N-{2-(fluoromethyl)-3-[2-(4-fluorophenyl)ethyl]-4-oxo-3,4-dihydroquinazolin-7-yl}-N′-[(1 S,2S,3S,5R)-2,6,6-trimethylbicyclo[3.1.1]hept-3-yl]piperazine-1-carboximidamide] | 12 | 3 | 20 |  |  |  | 
COc1ccc(CCn2c(NC3CC3)nc3cc(NC(=N[C@H]4C[C@H]5C[C@@H]([C@@H]4C)C5(C)C)N4CCN[C@@H](CF)C4)ccc3c2=O)c(F)c1 [Example 258, (3R)-N-{2-(cyclopropylamino)-3-(2-(2-fluoro-4-methoxyphenyl)ethyl]-4-oxo-3,4-dihydroquinazolin-7-yl}-3-(fluoromethyl)-N′-[(1S,2S,3S,5R)-2,6,6-trimethylbicyclo[3.1.1]hept-3-yl]piperazine-1-carboximidamide] |  | 2.9 | 5.3 |  |  |  | 
C[C@@H]1[C@@H](/N=C(/Nc2ccc3c(=O)n(CCc4ccc(Cl)cc4Cl)cnc3c2)N2CCNC(=O)C2)C[C@@H]2C[C@H]1C2(C)C [Example 260, N-{3-[2-(2,4-dichlorophenyl)ethyl]-4-oxo-3,4-dihydroquinazolin-7-yl]-3-oxo-N′-[(1R,2S,3S,5S)-2,6,6-trimethylbicyclo[3.1.1]hept-3-yl]piperazine-1-carboximidamide] |  |  | 7.2 |  |  |  | 7.3
COc1ccc(CCn2cnc3cc(N/C(=N/C4C[C@@H]5C[C@H]([C@@H]4C)C5(C)C)N4CC(C)CC(C)C4)ccc3c2=O)c(F)c1 (stereo partly drawn) [Example 274, N-(3-{2-[2-fluoro-4-(methyloxy)phenyl]ethyl}-4-oxo-3,4-dihydro-7-quinazolinyl)-3,5-dimethyl-N-[(1R,2S,5S)-2,6,6-trimethylbicyclo[3.1.1]hept-3-yl]-1-piperidinecarboximidamide] |  | 2.3 | 2.1 |  |  |  | 2.7
COc1ccc(CCn2cnc3cc(N/C(=N/[C@H]4C[C@@H]5C[C@H]([C@@H]4C)C5(C)C)N4CCC[C@H]4CO)ccc3c2=O)c(F)c1 [Example 281, (2S)-N-(3-{2-[2-fluoro-(methyloxy)phenyl]ethyl]-4-oxo-3,4-dihydro-7-quinazolinyl)-2-(hydroxymethyl)-N′-[(1R,2S,3S,5S)-2,6,6-trimethylbicyclo[3.1.1]hept-3-yl]-1-pyrrolidinecarboximidamide] |  |  | 5.3 |  |  |  | 6.5
COc1ccc(CCn2cnc3cc(N/C(=N/[C@H]4C[C@@H]5C[C@H]([C@@H]4C)C5(C)C)N(C)CCO)ccc3c2=O)c(F)c1 [Example 288] |  | 1.2 | 1.1 |  |  |  | 
